In ChEMBL document CHEMBL6071134, “Novel bibenzyl compound Ae exhibits anti-agiogenic activity in HUVECs in vitro and zebrafish in vivo” (Bioorg Med Chem, 2024):
The source made the active and inactive calls. No cut-off for these calls is given here.

Tests used:
Danio rerio [1] = species on record: Danio rerio; experiment: Anti-angiogenesis activity in zebrafish embryo assessed as effect on fgf2 mRNA expression at 0.5 to 5 uM measured after 24 hrs by qRT-PCR analysis; format: functional, organism-based; conditions: dose 0.5-5 µM
[2] = Toxicity in transgenic zebrafish at 2.5 uM measured after 72 hrs; design: species or system Danio rerio; conditions: in vivo
HUVEC [3] = experiment: Inhibition of cell migration in HUVEC cells at 0.25 uM by crystal violet staining based Boyden chamber assay; format: functional; conditions: Homo sapiens
Danio rerio [4] = species on record: Danio rerio; experiment: Anti-angiogenesis activity in zebrafish embryo assessed as downregulation of kdr1 mRNA expression at 0.5 to 5 uM measured after 24 hrs by qRT-PCR analysis; format: functional, organism-based; conditions: dose 0.5-5 µM
HUVEC [5] = experiment: Inhibition of cell migration in HUVEC cells assessed as […] in wound closure area at 0.25 to 2 uM incubated for 12 hrs by crystal violet staining based wound healing assay relative to DMSO; format: functional; conditions: Homo sapiens, dose 0.25-2 µM
HUVEC [6] = experiment: Anti-angiogenesis activity in HUVEC cells assessed as appearance of shorter tubule length at 0.25 to 2 uM incubated for 12 hrs by inverted microscopic analysis; format: functional, cell-based; conditions: Homo sapiens, dose 0.25-2 µM
Danio rerio [7] = species on record: Danio rerio; experiment: Anti-angiogenesis activity in zebrafish embryo assessed as effect on flt-1 mRNA expression at 0.5 to 5 uM measured after 24 hrs by qRT-PCR analysis; format: functional, organism-based; conditions: dose 0.5-5 µM
HUVEC [8] = experiment: Inhibition of cell invasion in HUVEC cells assessed as reduction in number of invading cells at 2 uM measured after 24 hrs by crystal violet staining based inverted fluorescence microscopy analysis relative to control; format: functional; conditions: Homo sapiens
HUVEC [9] = experiment: Inhibition of cell migration in HUVEC cells at 1 uM by crystal violet staining based Boyden chamber assay relative to control; format: functional; conditions: Homo sapiens
HUVEC [10] = experiment: Anti-angiogenesis activity in HUVEC cells assessed as appearance of broken tubule network structure at 0.25 to 2 uM incubated for 12 hrs by inverted microscopic analysis; format: functional, cell-based; conditions: Homo sapiens, dose 0.25-2 µM
HUVEC [11] = experiment: Inhibition of cell migration in HUVEC cells incubated for 12 hrs by crystal violet staining based wound healing assay; format: functional; conditions: Homo sapiens, dose 0.25-2 µM
HUVEC [12] = experiment: Inhibition of cell invasion in HUVEC cells measured after 24 hrs by crystal violet staining based inverted fluorescence microscopy analysis; format: functional; conditions: Homo sapiens, dose 0.25-2 µM
HUVEC [13] = experiment: (§1) Antiproliferative activity against HUVEC cells measured after 48 hrs by CCK-8 method; format: toxicity, cell-based; conditions: human, huvec, 48 h; dose 0.062-16 µM
[14] = as §1; format: toxicity, cell-based; conditions: human, HUVEC cells
HUVEC [15] = experiment: Anti-angiogenesis activity in HUVEC cells assessed as appearance of incomplete tubule network structure at 0.25 to 2 uM incubated for 12 hrs by inverted microscopic analysis; format: functional, cell-based; conditions: Homo sapiens, dose 0.25-2 µM
HUVEC [16] = experiment: Anti-angiogenesis activity in HUVEC cells assessed as reduction in total tube length at 2 uM incubated for 12 hrs by inverted microscopic analysis relative to control; format: functional, Homo sapiens; design: scale not given: the % may be the effect or the level left
HUVEC [17] = experiment: Anti-angiogenesis activity in HUVEC cells assessed as appearance of few branches in tubule network structure at 0.25 to 2 uM incubated for 12 hrs by inverted microscopic analysis; format: functional, cell-based; conditions: Homo sapiens, dose 0.25-2 µM
Danio rerio [18] = species on record: Danio rerio; experiment: Antiangiogenic activity against transgenic zebrafish model assessed as inhibition of inter-segmental blood vessels of embryo at 2.5 uM measured after 72 hrs post fertilization by fluorescence microscopy based analysis relative to control; format: functional; design: scale not given: the % may be the effect or the level left
Danio rerio [19] = species on record: Danio rerio; experiment: Anti-angiogenesis activity in zebrafish embryo assessed as effect on fgfr2 mRNA expression at 0.5 to 5 uM measured after 24 hrs by qRT-PCR analysis; format: functional, organism-based; conditions: dose 0.5-5 µM
HUVEC [20] = experiment: Inhibition of cell migration in HUVEC cells at 2 uM by crystal violet staining based Boyden chamber assay relative to control; format: functional; conditions: Homo sapiens
HUVEC [21] = experiment: Inhibition of cell migration in HUVEC cells at 0.25 uM by crystal violet staining based Boyden chamber assay relative to control; format: functional; conditions: Homo sapiens
Danio rerio [22] = species on record: Danio rerio; experiment: Anti-angiogenesis activity in zebrafish embryo assessed as effect on […]-mRNA expression at 0.5 to 5 uM measured after 24 hrs by qRT-PCR analysis; format: functional, organism-based; conditions: dose 0.5-5 µM
Danio rerio [23] = species on record: Danio rerio; experiment: Antiangiogenic activity against transgenic zebrafish model assessed as inhibition of inter-segmental blood vessels of embryo at 0.625 uM measured after 72 hrs post fertilization by fluorescence microscopy based analysis; format: functional, organism-based
Danio rerio [24] = species on record: Danio rerio; experiment: Anti-angiogenesis activity in zebrafish embryo assessed as downregulation of ang-2 mRNA expression at 0.5 to 5 uM measured after 24 hrs by qRT-PCR analysis; format: functional, organism-based; conditions: dose 0.5-5 µM
Danio rerio [25] = species on record: Danio rerio; experiment: Anti-angiogenesis activity in zebrafish embryo assessed as downregulation of kdr mRNA expression at 0.5 to 5 uM measured after 24 hrs by qRT-PCR analysis; format: functional, organism-based; conditions: dose 0.5-5 µM
HUVEC [26] = experiment: Anti-angiogenesis activity in HUVEC cells assessed as reduction in total tube length at 1 uM incubated for 12 hrs by inverted microscopic analysis relative to control; format: functional, Homo sapiens; design: scale not given: the % may be the effect or the level left
HUVEC [27] = experiment: Inhibition of cell migration in HUVEC cells at 0.5 uM by crystal violet staining based Boyden chamber assay relative to control; format: functional; conditions: Homo sapiens
Danio rerio [28] = species on record: Danio rerio; experiment: Antiangiogenic activity against transgenic zebrafish model assessed as inhibition of inter-segmental blood vessels of embryo measured after 72 hrs post fertilization by fluorescence microscopy based analysis; format: functional, organism-based; conditions: dose 0.625-2.5 µM
Danio rerio [29] = species on record: Danio rerio; experiment: Anti-angiogenesis activity in zebrafish embryo assessed as downregulation of tek mRNA expression at 0.5 to 5 uM measured after 24 hrs by qRT-PCR analysis; format: functional, organism-based; conditions: dose 0.5-5 µM

COc1cc(CCc2ccccc2Cl)cc(OC)c1O
Activity (Danio rerio [1]): inactive | Activity [2]: Toxic | inhibition (HUVEC [3]): Active | Activity (Danio rerio [4]): Active | inhibition (HUVEC [5]): Active | Activity (HUVEC [6]): Active | Activity (Danio rerio [7]): inactive | inhibition at 2 µM (HUVEC [8]): 17.4% | inhibition at 1 µM (HUVEC [9]): ~71.3% | Activity (HUVEC [10]): Active | inhibition (HUVEC [11]): Dose-Dependent Effect | inhibition (HUVEC [12]): Dose-Dependent Effect | Activity (HUVEC [13]): Dose-Dependent Effect | IC50 at 48 h [14]: 1700 nM | Activity (HUVEC [15]): Active | Activity (HUVEC [16]): 22.6% | Activity (HUVEC [17]): Active | Activity (Danio rerio [18]): 100% | Activity (Danio rerio [19]): inactive | inhibition at 2 µM (HUVEC [20]): ~78.5% | inhibition at 0.25 µM (HUVEC [21]): ~37.2% | Activity (Danio rerio [22]): inactive | Activity (Danio rerio [23]): Active | Activity (Danio rerio [24]): Active | Activity (Danio rerio [25]): Active | Activity (HUVEC [26]): 38.7% | inhibition at 0.5 µM (HUVEC [27]): ~64.4% | Activity (Danio rerio [28]): Dose-Dependent Effect | Activity (Danio rerio [29]): Active
